Assay results published in patent publication US20220033407A1, “N-(pyridin-2-ylsulfonyl)cyclopropanecarboxamide Derivatives and their Use in the Treatment of Disease” (NOVARTIS AG, priority 2018, published 2022).

Assays:
[1] = target: T1, delF508-CFTR (Homo sapiens, UniProt P13569, DEL508-508); assay: delF508-CFTR functional activity in primary human bronchial epithelial cells (HBECs), Multi-Transepithelial Clamp Circuit (MTECC-24) assay, equivalent short circuit current; format: cell-based; conditions: primary CF HBECs; for MTECC24 CFHBEC-Amax %: relative to reference combination 2 μM 3-(6-(1-(2,2-difluorobenzo[d][1,3]dioxol-5-yl)cyclopropane-1-carboxamido)-3-methylpyridin-2-yl)benzoic acid (24 h) + 0.5 μM N-(2,4-di-tert-butyl-5-hydroxyphenyl)-4-oxo-1,4-dihydroquinoline-3-carboxamide; for EC50: test compound added 24 h before assay, potentiator (S)-3-amino-6-methoxy-N-(3,3,3-trifluoro-2-hydroxy-2-methylpropyl)-5-(trifluoromethyl)picolinamide present at assay, mean of at least two replicates, read-out: MTECC24 CFHBEC-EC50
T1 construct: functional activity of the CFTR channel (Chloride ion transport) in patient derived primary human bronchial epithelial cells; host or cells: patient-derived primary human bronchial epithelial cells (HBECs), delF508-CFTR
How it was run: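 Patient-derived delF508 HBECs, grown at air-liquid interface about two weeks, were corrected with compound basolaterally for 24 h. Compound was then re-added apically and basolaterally in HEPES pH7.4 assay medium, with sequential modulators including forskolin and the picolinamide potentiator. Ieq was recorded, normalised to 0.1% DMSO wells, and EC50 fitted from 10-point curves.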

[2] = target: T2, delF508-CFTR-HRP (Homo sapiens, UniProt P13569, DEL508-508); assay: Measurement of delF508-CFTR-HRP surface expression in CFBE41o- cells (HRP luminescence); format: cell-based; conditions: for Emax: CFBE41o-, read-out: DelF508-CFTR-HRP Amax %; for EC50: mean of at least two replicates;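 for DelF508-CFTR-HRP Amax %: percent efficacy relative to a reference CFTR corrector compound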
T2 construct: expressed in transfected cells
How it was run: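 Stably transfected CFBE41o- cells carrying HRP in the fourth extracellular loop of delF508-CFTR, induced with 500 ng/mL doxycycline for 48 h, then compound-treated 24 h at 37° C (10-point, 3-fold, top 10 μM). Surface HRP detected by luminescent substrate; EC50 from logistic fit, triplicates, normalized to lowest-concentration median.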

T2 sequence (P13569 with tags, fused parts or gaps DEL508-508): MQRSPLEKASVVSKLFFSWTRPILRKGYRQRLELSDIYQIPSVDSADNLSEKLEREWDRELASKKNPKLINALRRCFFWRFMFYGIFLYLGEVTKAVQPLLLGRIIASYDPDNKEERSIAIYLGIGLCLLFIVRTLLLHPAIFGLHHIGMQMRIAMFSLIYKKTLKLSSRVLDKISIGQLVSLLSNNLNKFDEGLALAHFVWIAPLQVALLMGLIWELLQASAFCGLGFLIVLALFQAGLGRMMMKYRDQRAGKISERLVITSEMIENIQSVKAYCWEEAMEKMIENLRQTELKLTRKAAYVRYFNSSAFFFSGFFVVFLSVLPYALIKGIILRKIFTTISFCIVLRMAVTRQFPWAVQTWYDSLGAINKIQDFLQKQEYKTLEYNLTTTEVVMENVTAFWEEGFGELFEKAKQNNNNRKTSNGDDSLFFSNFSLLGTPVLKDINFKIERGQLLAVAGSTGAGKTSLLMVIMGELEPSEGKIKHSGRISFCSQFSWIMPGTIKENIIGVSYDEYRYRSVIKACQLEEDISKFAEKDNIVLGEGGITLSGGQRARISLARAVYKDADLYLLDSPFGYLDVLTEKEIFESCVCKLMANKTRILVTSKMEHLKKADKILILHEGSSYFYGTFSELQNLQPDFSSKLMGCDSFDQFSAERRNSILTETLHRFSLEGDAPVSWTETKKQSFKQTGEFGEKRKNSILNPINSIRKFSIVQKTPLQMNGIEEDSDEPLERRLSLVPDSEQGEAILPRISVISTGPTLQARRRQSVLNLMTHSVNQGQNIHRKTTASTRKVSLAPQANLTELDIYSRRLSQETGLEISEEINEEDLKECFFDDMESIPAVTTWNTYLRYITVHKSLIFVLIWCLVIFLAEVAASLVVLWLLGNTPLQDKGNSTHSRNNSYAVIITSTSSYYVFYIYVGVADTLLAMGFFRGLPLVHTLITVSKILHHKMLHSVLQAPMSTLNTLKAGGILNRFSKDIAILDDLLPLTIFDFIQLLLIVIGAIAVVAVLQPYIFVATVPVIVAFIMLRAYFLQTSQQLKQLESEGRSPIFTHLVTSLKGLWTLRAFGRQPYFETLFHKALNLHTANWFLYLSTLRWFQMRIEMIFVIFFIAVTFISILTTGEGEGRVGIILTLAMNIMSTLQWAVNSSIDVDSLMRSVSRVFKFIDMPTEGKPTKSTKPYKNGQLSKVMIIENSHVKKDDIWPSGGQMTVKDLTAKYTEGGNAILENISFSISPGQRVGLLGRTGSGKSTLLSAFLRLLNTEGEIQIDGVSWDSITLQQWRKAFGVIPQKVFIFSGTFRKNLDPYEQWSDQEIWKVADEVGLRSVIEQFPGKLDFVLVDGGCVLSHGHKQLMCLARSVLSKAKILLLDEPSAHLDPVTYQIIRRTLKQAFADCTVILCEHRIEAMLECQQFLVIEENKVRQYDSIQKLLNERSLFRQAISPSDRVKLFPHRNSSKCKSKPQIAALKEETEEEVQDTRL
T1 sequence (P13569 with tags, fused parts or gaps DEL508-508): as above

SMILES | MTECC24 CFHBEC-Amax % [1] [%] | EC50 [1] [µM] | Emax [2] [%] | EC50 [2] [µM]
O=C(NS(=O)(=O)c1cccc(N2CCC(O)CC2)n1)C1(Oc2cc(Cl)ccc2C2CC3(CCC3)C2)CC1 [Example 7-11, 1-(5-Chloro-2-(spiro[3.3]heptan-2-yl)phenoxy)-N-((6-(4-hydroxypiperidin-1-yl)pyridin-2-yl)sulfonyl)cyclopropane-1-carboxamide] | 154.0 | 0.197 | 446 | 1.26
Cc1ccc(C2CCC(F)(F)CC2)c(OC2(C(=O)NS(=O)(=O)c3cccc(N4CCC5(CC4)CC(=O)c4cc(F)ccc4N5)n3)CC2)c1 [Example 3-1, 1-(2-(4,4-Difluorocyclohexyl)-5-methylphenoxy)-N-((6-(6′-fluoro-4′-oxo-3′,4′-dihydro-1′H-spiro[piperidine-4,2′-quinolin]-1-yl)pyridin-2-yl)sulfonyl)cyclopropanecarboxamide] | 34 | 0.028 | 184 | 3.07
Cc1ccc(C2CCCCC2)c(OC2(C(=O)NS(=O)(=O)c3cccc(N)n3)CC2)c1 [Example 1-1, N-((6-Aminopyridin-2-yl)sulfonyl)-1-(2-cyclohexyl-5-methylphenoxy)cyclopropane-1-carboxamide] | 91 | 0.015 | 421 | 2.01
Cc1ccc(-c2cc(F)cc(OCC(C)C)c2)c(OC2(C(=O)NS(=O)(=O)c3cccc(N)n3)CC2)c1 [Example 1-2, N-((6-Aminopyridin-2-yl)sulfonyl)-1-((3′-fluoro-5′-isobutoxy-4-methyl-[1,1′-biphenyl]-2-yl)oxy)cyclopropane-1-carboxamide] | 89 | 0.045 | 136 | 2.44
CN(C)c1cccc(S(=O)(=O)NC(=O)C2(Oc3cc(Cl)ccc3C3CC4(CCC4)C3)CC2)n1 [Example 7-15, 1-(5-Chloro-2-(spiro[3.3]heptan-2-yl)phenoxy)-N-((6-(dimethylamino)pyridin-2-yl)sulfonyl)cyclopropane-1-carboxamide] | 120.7 | 0.166 | 442 | 0.86
Cc1ccc(C2CCCCC2)c(OC2(C(=O)NS(=O)(=O)c3cccc(N4CCC(C)(NC(=O)C5CC5)CC4)n3)CC2)c1 [Example 2-10, 1-(2-Cyclohexyl-5-methylphenoxy)-N-((6-(4-(cyclopropanecarboxamido)-4-methylpiperidin-1-yl)pyridin-2-yl)sulfonyl)cyclopropanecarboxamide] | 56 | 0.003 | 327 | 1.81
Cc1ccc(C2CCC(F)(F)CC2)c(OC2(C(=O)NS(=O)(=O)c3cccc(NC[C@@H](C)O)n3)CC2)c1 [Example 3-4, (R)-1-(2-(4,4-Difluorocyclohexyl)-5-methylphenoxy)-N-((6-((2-hydroxypropyl)amino)pyridin-2-yl)sulfonyl)cyclopropane-1-carboxamide] | 87 | 0.092 | 318 | 3.85
CC1(C)CCN(c2ccc(Cl)cc2OC2(C(=O)NS(=O)(=O)c3cccc(N4CC[C@H](O)C4)n3)CC2)CC1 [Example 8-1, (S)-1-(5-Chloro-2-(4,4-dimethylpiperidin-1-yl)phenoxy)-N-((6-(3-hydroxypyrrolidin-1-yl)pyridin-2-yl)sulfonyl)cyclopropane-1-carboxamide] | 197.2 | 0.373 | – | 1.74
Cc1ccc(C2CCCCC2)c(OC2(C(=O)NS(=O)(=O)c3cccc(N4CCOC[C@H]4C)n3)CC2)c1 [Example 2-26, (R)-1-(2-Cyclohexyl-5-methylphenoxy)-N-((6-(3-methylmorpholino)pyridin-2-yl)sulfonyl)cyclopropanecarboxamide] | 89 | 0.006 | 500 | 1.41
CC1(C)CCN(c2ccc(Cl)cc2OC2(C(=O)NS(=O)(=O)c3cccc(N4CCC(O)(C(C)(C)C)CC4)n3)CC2)CC1 [Example 10-6, N-((6-(4-(tert-butyl)-4-hydroxypiperidin-1-yl)pyridin-2-yl)sulfonyl)-1-(5-chloro-2-(4,4-dimethylpiperidin-1-yl)phenoxy)cyclopropanecarboxamide] | 103.9 | 0.08 | 462 | 0.75
Cc1ccc(C2CCCCC2)c(OC2(C(=O)NS(=O)(=O)c3cccc(N4CCC(C)(NC(=S)NC5CC5)CC4)n3)CC2)c1 [Example 2-23, 1-(2-Cyclohexyl-5-methylphenoxy)-N-((6-(4-(3-cyclopropylthioureido)-4-methylpiperidin-1-yl)pyridin-2-yl)sulfonyl)cyclopropanecarboxamide] | 66 | 0.004 | 330 | 1.85
Cc1ccc(C2CCCCC2)c(OC2(C(=O)NS(=O)(=O)c3cccc(N4CCC(C)(NC(=O)OC(C)(C)C)CC4)n3)CC2)c1 [Example 2-8, Tert-butyl (1-(6-(N-(1-(2-cyclohexyl-5-methylphenoxy)cyclopropanecarbonyl)sulfamoyl)pyridin-2-yl)-4-methylpiperidin-4-yl)carbamate] | 60 | 0.063 | 716 | 0.54
Cc1ccc(-c2ccc(C(F)(F)F)cc2)c(OC2(C(=O)NS(=O)(=O)c3cccc(N4CC[C@H](O)C4)n3)CC2)c1 [Example 5-10, (S)—N-((6-(3-Hydroxypyrrolidin-1-yl)pyridin-2-yl)sulfonyl)-1-((4-methyl-4′-(trifluoromethyl)-[1,1′-biphenyl]-2-yl)oxy)cyclopropane-1-carboxamide] | 114 | 0.026 | 416 | 1.21
CC1(O)CCN(c2cccc(S(=O)(=O)NC(=O)C3(Oc4cc(Cl)ccc4C4CC5(CCC5)C4)CC3)n2)CC1 [Example 7-12, 1-(5-Chloro-2-(spiro[3.3]heptan-2-yl)phenoxy)-N-((6-(4-hydroxy-4-methylpiperidin-1-yl)pyridin-2-yl)sulfonyl)cyclopropane-1-carboxamide] | 152.6 | 0.195 | 529 | 1.09
Cc1ccc(C2CCCCC2)c(OC2(C(=O)NS(=O)(=O)c3cccc(N4CCC(C)(C#N)CC4)n3)CC2)c1 [Example 2-15, N-((6-(4-cyano-4-methylpiperidin-1-yl)pyridin-2-yl)sulfonyl)-1-(2-cyclohexyl-5-methylphenoxy)cyclopropanecarboxamide] | 101 | 0.003 | 284 | 0.94
Cc1ccc(C2CCCCC2)c(OC2(C(=O)NS(=O)(=O)c3cccc(N4CCC(CF)(NC(=O)OC(C)(C)C)CC4)n3)CC2)c1 [Example 2-42, Tert-butyl (1-(6-(N-(1-(2-cyclohexyl-5-methylphenoxy)cyclopropanecarbonyl)sulfamoyl)pyridin-2-yl)-4-(fluoromethyl)piperidin-4-yl)carbamate] | 90 | 0.006 | 284 | 0.88
Cc1ccc(C2CCCCC2)c(OC2(C(=O)NS(=O)(=O)c3cccc(N(C)CC(C)O)n3)CC2)c1 (centres unmarked) [Example 2-48] | 93 | 0.004 | 620 | 2.02
O=C(NS(=O)(=O)c1cccc(N2CC[C@H](O)C2)n1)C1(Oc2cc(Cl)ccc2N2CC3(CCCCC3)C2)CC1 [Example 9-1, (S)-1-(5-chloro-2-(2-azaspiro[3.5]nonan-2-yl)phenoxy)-N-((6-(3-hydroxypyrrolidin-1-yl)pyridin-2-yl)sulfonyl)cyclopropanecarboxamide] | 206.5 | 0.294 | 647 | 1.06
CC1(C)CCN(c2ccc(Cl)cc2OC2(C(=O)NS(=O)(=O)c3cccc(N4CCC(O)CC4)n3)CC2)CC1 [Example 9-41, 1-(5-Chloro-2-(4,4-dimethylpiperidin-1-yl)phenoxy)-N-((6-(4-hydroxypiperidin-1-yl)pyridin-2-yl)sulfonyl)cyclopropane-1-carboxamide] | 79.3 | 0.29 | 656 | 1.58
Cc1ccc(-c2cccc(C(F)F)c2)c(OC2(C(=O)NS(=O)(=O)c3cccc(N4CC[C@H](O)C4)n3)CC2)c1 [Example 5-9, (S)-1-((3′-(Difluoromethyl)-4-methyl-[1,1′-biphenyl]-2-yl)oxy)-N-] | 87 | 0.076 | 298 | 3.11
Cc1ccc(C2CCCC(F)(F)C2)c(OC2(C(=O)NS(=O)(=O)c3cccc(N)n3)CC2)c1 (centres unmarked) [Example 1-5, N-((6-Aminopyridin-2-yl)sulfonyl)-1-(2-(3,3-difluorocyclohexyl)-5-methylphenoxy)cyclopropane-1-carboxamide] | 94 | 0.312 | 179 | 3.96
